The target in one assay is CDK6/Cyclin D3 (Homo sapiens, UniProt Q00534). Kind of assay: CDK6/Cyclin D3 kinase inhibition TR-FRET assay. The class given is biochemical. The settings on record: 1 mM ATP, 0.15 μM Rb (Ser780)-biotin substrate, read-out: CDK6D3 IC50. Here is the method: (§1) Compounds disclosed herein were tested for inhibition of CDK4/Cyclin D1 or CDK6/Cyclin D3 kinase in an assay based on the time-resolved fluorescence-resonance energy transfer (TR-FRET) methodology. The assay was carried out in 384-well low volume black plates in a reaction mixture containing CDK4/Cyclin D1 or CDK6/Cyclin D3, 1 mM ATP, 0.15 μM Rb (Ser780)-biotin substrate and 0-10 μM compound in buffer containing 50 mM HEPES pH7.0, 0.02% NaN3, 0.01% BSA, 0.1 mM Orthovanadate, 50 mM MgCl2, 1 mM DTT and 0.005% Tween-20. The kinase was incubated with compound for 60 minutes at room temperature and the reaction was initiated by the addition of ATP and Rb (Ser780)-biotin substrate. After reaction at room temperature for 120 minutes, an equal volume of stop/detection solution was added according to the manufacture's instruction (Cisbio Bioassays). The stop/detection solution contained Streptavidin-XL665 and Anti-pRb (Ser780) mAb-Eu Cryptate in Detection buffer (Cisbio Bioassays). Plates were incubated at room temperature for 60 minutes, and the TR-FRET signals (ex337 nm, em665 nm/620 nm) were recorded on a PHERAstar FSX plate reader (BMG Labtech). The inhibition percentage of CDK4/Cyclin D1 or CDK6/Cyclin D3 kinase activity in presence of increasing concentrations of compounds was calculated based on the ratio of fluorescence at 665 nm to that at 620 nm. The IC50 for each compound was derived from fitting the data to the four-parameter logistic equation by Dotmatics.
(TR-FRET usually uses a lanthanide donor and a delayed reading to cut background.)

The target of another assay is CDK4/Cyclin D1 (Homo sapiens, UniProt P11802). Put plainly: CDK4/Cyclin D1 kinase inhibition TR-FRET assay. The class given is biochemical. The settings on record: 1 mM ATP, 0.15 μM Rb (Ser780)-biotin substrate, read-out: CDK4D1 IC50. Here is the method: as §1

Usually IC50 stands for the concentration needed to halve the response being measured.

Sequence of CDK4/Cyclin D1 (P11802 whole entry): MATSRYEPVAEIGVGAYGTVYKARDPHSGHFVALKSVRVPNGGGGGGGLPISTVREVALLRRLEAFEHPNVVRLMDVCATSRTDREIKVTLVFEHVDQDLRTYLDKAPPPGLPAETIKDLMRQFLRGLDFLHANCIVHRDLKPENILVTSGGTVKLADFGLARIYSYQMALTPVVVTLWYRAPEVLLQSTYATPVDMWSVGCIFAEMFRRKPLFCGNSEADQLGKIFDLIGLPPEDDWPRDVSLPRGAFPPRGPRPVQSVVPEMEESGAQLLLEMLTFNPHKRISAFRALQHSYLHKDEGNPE
Sequence of CDK4/Cyclin D1 (P24385 whole entry partner): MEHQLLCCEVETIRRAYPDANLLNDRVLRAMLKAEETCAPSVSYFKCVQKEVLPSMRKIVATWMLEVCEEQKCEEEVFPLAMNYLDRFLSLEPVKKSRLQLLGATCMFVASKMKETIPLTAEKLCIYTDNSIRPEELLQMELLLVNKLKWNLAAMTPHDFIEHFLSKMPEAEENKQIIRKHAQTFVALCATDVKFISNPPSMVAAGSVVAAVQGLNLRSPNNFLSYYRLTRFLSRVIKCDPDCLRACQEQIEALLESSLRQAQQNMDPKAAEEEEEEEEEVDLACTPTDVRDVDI
Sequence of CDK6/Cyclin D3 (Q00534 whole entry): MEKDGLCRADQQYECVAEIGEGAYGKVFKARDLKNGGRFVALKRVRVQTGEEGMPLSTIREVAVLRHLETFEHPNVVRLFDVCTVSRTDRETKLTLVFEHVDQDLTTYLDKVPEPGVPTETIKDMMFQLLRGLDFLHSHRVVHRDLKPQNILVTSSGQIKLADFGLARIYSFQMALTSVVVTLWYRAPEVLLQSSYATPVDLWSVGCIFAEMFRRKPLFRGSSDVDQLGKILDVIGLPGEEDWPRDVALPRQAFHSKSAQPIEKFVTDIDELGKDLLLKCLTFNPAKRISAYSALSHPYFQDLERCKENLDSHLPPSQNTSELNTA
Sequence of CDK6/Cyclin D3 (P30281 whole entry partner): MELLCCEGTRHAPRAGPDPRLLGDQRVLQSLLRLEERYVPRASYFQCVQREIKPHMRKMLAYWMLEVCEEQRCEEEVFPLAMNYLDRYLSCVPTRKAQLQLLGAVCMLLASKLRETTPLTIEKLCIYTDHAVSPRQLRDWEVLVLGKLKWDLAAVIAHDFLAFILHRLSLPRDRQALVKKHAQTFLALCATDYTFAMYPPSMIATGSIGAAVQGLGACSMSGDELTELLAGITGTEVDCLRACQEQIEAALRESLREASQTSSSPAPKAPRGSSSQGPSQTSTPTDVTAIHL

Take `CC(C)c1c(C(C)(C)O)cnc2c(F)cc(-c3nc(N[C@@H]4CCOC[C@@H]4O)ncc3Cl)cc12` [Example 17, (3R,4R)-4-((5-chloro-4-(8-fluoro-3-(2-hydroxypropan-2-yl)-4-isopropylquinolin-6-yl)pyrimidin-2-yl)amino)tetrahydro-2H-pyran-3-ol]: the IC50 was 228 nM on CDK6/Cyclin D3 and 9 nM on CDK4/Cyclin D1.
The like results for `CC(C)c1c(CNC2CC2)cnc2ccc(-c3nc(N[C@@H]4CCOC[C@@H]4O)ncc3F)cc12` [Example 10, (3R,4R)-4-((4-(3-((cyclopropylamino)methyl)-4-isopropylquinolin-6-yl)-5-fluoropyrimidin-2-yl)amino)tetrahydro-2H-pyran-3-ol] were, in that order, 510 nM and 12 nM.
For the compound `CC(C)c1c(CN2CCOCC2)cnc2ccc(-c3nc(N[C@@H]4CCOC[C@@H]4O)ncc3F)cc12` [Example 2, (3R,4R)-4-((5-fluoro-4-(4-isopropyl-3-(morpholinomethyl)quinolin-6-yl)pyrimidin-2-yl)amino)tetrahydro-2H-pyran-3-ol], the IC50 on CDK6/Cyclin D3 was found to be 456 nM; on CDK4/Cyclin D1, 21 nM.
For `CC(C)c1c(CN)cnc2ccc(-c3nc(N[C@@H]4CCOC[C@@H]4O)ncc3F)cc12` [Example 4, (3R,4R)-4-((4-(3-(aminomethyl)-4-isopropylquinolin-6-yl)-5-fluoropyrimidin-2-yl)amino)tetrahydro-2H-pyran-3-ol], in that order: 190 nM and 2.6 nM.
The like results for `CC(C)c1c(CN2[C@H](C)COC[C@@H]2C)cnc2ccc(-c3nc(N[C@@H]4CCOC[C@@H]4O)ncc3F)cc12` [Example 8, (3R,4R)-4-((4-(3-(((3R,5S)-3,5-dimethylmorpholino)methyl)-4-isopropylquinolin-6-yl)-5-fluoropyrimidin-2-yl)amino)tetrahydro-2H-pyran-3-ol] were, in that order, 921 nM and 21 nM.
As to `CC(C)c1c(CNC2CC(F)(F)C2)cnc2c(F)cc(-c3nc(N[C@@H]4CCOC[C@@H]4O)ncc3F)cc12` [Example 14, (3R,4R)-4-((4-(3-(((3,3-difluorocyclobutyl)amino)methyl)-8-fluoro-4-isopropylquinolin-6-yl)-5-fluoropyrimidin-2-yl)amino)tetrahydro-2H-pyran-3-ol], the IC50 at CDK6/Cyclin D3 worked out at 462 nM; on CDK4/Cyclin D1, 15 nM.
The like results for `CC(C)c1c(CN2CCC[C@@H](C#N)C2)cnc2ccc(-c3nc(N[C@@H]4CCOC[C@@H]4O)ncc3F)cc12` [Example 7, (R)-1-((6-(5-fluoro-2-(((3R,4R)-3-hydroxytetrahydro-2H-pyran-4-yl)amino)pyrimidin-4-yl)-4-isopropylquinolin-3-yl)methyl)piperidine-3-carbonitrile] were, in that order, 544 nM and 24 nM.
The like results for `CC(C)c1c(CN2CC(O)C2)cnc2ccc(-c3nc(N[C@@H]4CCOC[C@@H]4O)ncc3F)cc12` [Example 5, 1-((6-(5-fluoro-2-(((3R,4R)-3-hydroxytetrahydro-2H-pyran-4-yl)amino)pyrimidin-4-yl)-4-isopropylquinolin-3-yl)methyl)azetidin-3-ol] were, in that order, 1830 nM and 26 nM.
The like results for `CC(C)c1c(C2(O)CCOCC2)cnc2c(F)cc(-c3nc(N[C@@H]4CCOC[C@@H]4O)ncc3Cl)cc12` [Example 18, (3R,4R)-4-((5-chloro-4-(8-fluoro-3-(4-hydroxytetrahydro-2H-pyran-4-yl)-4-isopropylquinolin-6-yl)pyrimidin-2-yl)amino)tetrahydro-2H-pyran-3-ol] were, in that order, 273 nM and 8.4 nM.
`CC(C)c1c(CN2CCC[C@H](C#N)C2)cnc2ccc(-c3nc(N[C@@H]4CCOC[C@@H]4O)ncc3F)cc12` [Example 6, (S)-1-((6-(5-fluoro-2-(((3R,4R)-3-hydroxytetrahydro-2H-pyran-4-yl)amino)pyrimidin-4-yl)-4-isopropylquinolin-3-yl)methyl)piperidine-3-carbonitrile]: the values for the IC50 at CDK6/Cyclin D3 and at CDK4/Cyclin D1 were 273 nM and 7 nM, respectively.
For `CC(C)c1c(CN2[C@H](C)COC[C@H]2C)cnc2ccc(-c3nc(N[C@@H]4CCOC[C@@H]4O)ncc3F)cc12` [Example 9, (3R,4R)-4-((4-(3-(((3R,5R)-3,5-dimethylmorpholino)methyl)-4-isopropylquinolin-6-yl)-5-fluoropyrimidin-2-yl)amino)tetrahydro-2H-pyran-3-ol], in that order: 532 nM and 22 nM.
For `CC(C)c1c(C2(O)CCCC2)cnc2c(F)cc(-c3nc(N[C@@H]4CCOC[C@@H]4O)ncc3F)cc12` [Example 16, (3R,4R)-4-((5-fluoro-4-(8-fluoro-3-(1-hydroxycyclopentyl)-4-isopropylquinolin-6-yl)pyrimidin-2-yl)amino)tetrahydro-2H-pyran-3-ol], in that order: 93 nM and 4.4 nM.
For `CC(C)c1c(CO)cnc2ccc(-c3nc(N[C@@H]4CCOC[C@@H]4O)ncc3F)cc12` [Example 1, (3R,4R)-4-((5-fluoro-4-(3-(hydroxymethyl)-4-isopropylquinolin-6-yl)pyrimidin-2-yl)amino)tetrahydro-2H-pyran-3-ol], in that order: 107 nM and 7.9 nM.
As to `CC(C)c1c(C2(O)CCCC2)cnc2ccc(-c3nc(N[C@@H]4CCOC[C@@H]4O)ncc3F)cc12` [Example 12, (3R,4R)-4-((5-fluoro-4-(3-(1-hydroxycyclopentyl)-4-isopropylquinolin-6-yl)pyrimidin-2-yl)amino)tetrahydro-2H-pyran-3-ol], the IC50 stood at 300 nM on CDK6/Cyclin D3 and 5.5 nM at CDK4/Cyclin D1.
`CC(C)c1c(CN2[C@H](C)COC[C@@H]2C)cnc2c(F)cc(-c3nc(N[C@@H]4CCOC[C@@H]4O)ncc3F)cc12` [Example 13, (3R,4R)-4-((4-(3-(((3R,5S)-3,5-dimethylmorpholino)methyl)-8-fluoro-4-isopropylquinolin-6-yl)-5-fluoropyrimidin-2-yl)amino)tetrahydro-2H-pyran-3-ol]: the concentration for half-maximal inhibition (IC50) on CDK6/Cyclin D3 was determined as 287 nM; on CDK4/Cyclin D1, 7.6 nM.
The like results for `CC(C)c1c(CN[C@@H]2CCCOC2)cnc2c(F)cc(-c3nc(N[C@@H]4CCOC[C@@H]4O)ncc3F)cc12` [Example 15, (3R,4R)-4-((5-fluoro-4-(8-fluoro-4-isopropyl-3-((((R)-tetrahydro-2H-pyran-3-yl)amino)methyl)quinolin-6-yl)pyrimidin-2-yl)amino)tetrahydro-2H-pyran-3-ol] were, in that order, 702 nM and 21 nM.
Regarding `CC(C)c1c(CN[C@H]2CCOC2)cnc2ccc(-c3nc(N[C@@H]4CCOC[C@@H]4O)ncc3F)cc12` [Example 11, (3R,4R)-4-((5-fluoro-4-(4-isopropyl-3-((((S)-tetrahydrofuran-3-yl)amino)methyl)quinolin-6-yl)pyrimidin-2-yl)amino)tetrahydro-2H-pyran-3-ol], the IC50 at CDK6/Cyclin D3 came to 1270 nM; on CDK4/Cyclin D1 it was 16 nM.
For `CC(C)c1c(CN[C@@H]2CCCOC2)cnc2ccc(-c3nc(N[C@@H]4CCOC[C@@H]4O)ncc3F)cc12` [Example 3, (3R,4R)-4-((5-fluoro-4-(4-isopropyl-3-((((R)-tetrahydro-2H-pyran-3-yl)amino)methyl)quinolin-6-yl)pyrimidin-2-yl)amino)tetrahydro-2H-pyran-3-ol], in that order: 1100 nM and 16 nM.
In the case of `CC(C)c1c(CN2[C@H](C)COC[C@@H]2C)cnc2c(F)cc(-c3nc(N[C@@H]4CCOC[C@@H]4O)ncc3Cl)cc12` [Example 21, (3R,4R)-4-((5-chloro-4-(3-(((3R,5S)-3,5-dimethylmorpholino)methyl)-8-fluoro-4-isopropylquinolin-6-yl)pyrimidin-2-yl)amino)tetrahydro-2H-pyran-3-ol], the IC50 stood at 409 nM at CDK6/Cyclin D3 and 7.9 nM on CDK4/Cyclin D1.

(Values after US20260242363A1, “SUBSTITUTED 6-(PYRIMIDIN-4-YL)QUINOLINE COMPOUNDS AS CYCLIN DEPENDENT KINASE INHIBITORS” (BeOne Medicines I GmbH, priority 2023, published 2026).)
